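Test compounds were applied to cells in 96-well plates for 48 hours at 5 doses. TGI denotes the concentration required for complete inhibition of growth.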
Legend:
Assay in all cases: DTP human tumour cell line panel, 48 h
SK-OV-3 ovarian = tested on: SK-OV-3 ovarian
OVCAR-8 ovarian = tested on: OVCAR-8 ovarian
A549 NSCLC = tested on: A549 NSCLC
MOLT-4 leukemia = tested on: MOLT-4 leukemia
UACC-257 melanoma = tested on: UACC-257 melanoma
CCRF-CEM leukemia = tested on: CCRF-CEM leukemia
KM20L2 colon = tested on: KM20L2 colon
K-562 leukemia = tested on: K-562 leukemia
IGROV1 ovarian = tested on: IGROV1 ovarian
NCI-H23 lung = tested on: NCI-H23 lung
HT29 colon = tested on: HT29 colon
SR leukemia = tested on: SR leukemia
LXFL 529 NSCLC = tested on: LXFL 529 NSCLC
SN12C renal = tested on: SN12C renal
HOP-18 NSCLC = tested on: HOP-18 NSCLC
SF-295 CNS = tested on: SF-295 CNS
NCI-H460 lung = tested on: NCI-H460 lung
SK-MEL-28 melanoma = tested on: SK-MEL-28 melanoma
RXF-631 renal = tested on: RXF-631 renal
M19-MEL melanoma = tested on: M19-MEL melanoma
SF-539 CNS = tested on: SF-539 CNS
A498 renal = tested on: A498 renal
U251 CNS = tested on: U251 CNS
UACC-62 melanoma = tested on: UACC-62 melanoma
XF 498 CNS = tested on: XF 498 CNS
HL-60(TB) leukemia = tested on: HL-60(TB) leukemia
ACHN renal = tested on: ACHN renal
SNB-75 CNS = tested on: SNB-75 CNS
RPMI-8226 leukemia = tested on: RPMI-8226 leukemia
SNB-78 CNS = tested on: SNB-78 CNS
KM12 colon = tested on: KM12 colon
HOP-62 NSCLC = tested on: HOP-62 NSCLC
OVCAR-4 ovarian = tested on: OVCAR-4 ovarian
HCT-116 colon = tested on: HCT-116 colon
MALME-3M melanoma = tested on: MALME-3M melanoma
DMS 273 small cell lung = tested on: DMS 273 small cell lung
SW-620 colon = tested on: SW-620 colon
SK-MEL-2 melanoma = tested on: SK-MEL-2 melanoma
EKVX NSCLC = tested on: EKVX NSCLC
OVCAR-5 ovarian = tested on: OVCAR-5 ovarian
SNB-19 CNS = tested on: SNB-19 CNS
CAKI-1 renal = tested on: CAKI-1 renal
DMS 114 small cell lung = tested on: DMS 114 small cell lung
786-0 renal = tested on: 786-0 renal
NCI-H226 lung = tested on: NCI-H226 lung
RXF 393 renal = tested on: RXF 393 renal
UO-31 renal = tested on: UO-31 renal
SF-268 CNS = tested on: SF-268 CNS
M14 melanoma = tested on: M14 melanoma
HCT-15 colon = tested on: HCT-15 colon
SK-MEL-5 melanoma = tested on: SK-MEL-5 melanoma
HOP-92 NSCLC = tested on: HOP-92 NSCLC
HCC-2998 colon = tested on: HCC-2998 colon
TK-10 renal = tested on: TK-10 renal
NCI-H522 lung = tested on: NCI-H522 lung
DLD-1 colon = tested on: DLD-1 colon
LOX IMVI melanoma = tested on: LOX IMVI melanoma
COLO 205 colon = tested on: COLO 205 colon
OVCAR-3 ovarian = tested on: OVCAR-3 ovarian

Measured: TGI

COc1cc(/C=N/c2nncs2)ccc1O
> 100 µM: SK-OV-3 ovarian | OVCAR-8 ovarian | A549 NSCLC | MOLT-4 leukemia | UACC-257 melanoma | CCRF-CEM leukemia | KM20L2 colon | K-562 leukemia | IGROV1 ovarian | NCI-H23 lung | HT29 colon | SR leukemia | LXFL 529 NSCLC | SN12C renal | HOP-18 NSCLC | SF-295 CNS | NCI-H460 lung | SK-MEL-28 melanoma | RXF-631 renal | M19-MEL melanoma | SF-539 CNS | A498 renal | U251 CNS | UACC-62 melanoma | XF 498 CNS | HL-60(TB) leukemia | ACHN renal | SNB-75 CNS | RPMI-8226 leukemia | SNB-78 CNS | KM12 colon | HOP-62 NSCLC | OVCAR-4 ovarian | HCT-116 colon | MALME-3M melanoma | DMS 273 small cell lung | SW-620 colon | SK-MEL-2 melanoma | EKVX NSCLC | OVCAR-5 ovarian | SNB-19 CNS | CAKI-1 renal | DMS 114 small cell lung | 786-0 renal | NCI-H226 lung | RXF 393 renal | UO-31 renal | SF-268 CNS | M14 melanoma | HCT-15 colon | SK-MEL-5 melanoma | HOP-92 NSCLC | HCC-2998 colon | TK-10 renal

COc1cccc(C2C(C(=O)O)=C(CO)Oc3cc4c(cc32)OCO4)c1OC (stereo not drawn)
94.7 µM: XF 498 CNS
> 100 µM: SK-OV-3 ovarian | OVCAR-8 ovarian | MOLT-4 leukemia | CCRF-CEM leukemia | NCI-H522 lung | KM20L2 colon | K-562 leukemia | IGROV1 ovarian | NCI-H23 lung | LXFL 529 NSCLC | SN12C renal | HOP-18 NSCLC | SF-295 CNS | NCI-H460 lung | SK-MEL-28 melanoma | RXF-631 renal | M19-MEL melanoma | SF-539 CNS | DLD-1 colon | A498 renal | U251 CNS | UACC-62 melanoma | HL-60(TB) leukemia | ACHN renal | SNB-75 CNS | RPMI-8226 leukemia | SNB-78 CNS | LOX IMVI melanoma | COLO 205 colon | MALME-3M melanoma | SW-620 colon | SK-MEL-2 melanoma | EKVX NSCLC | SNB-19 CNS | CAKI-1 renal | NCI-H226 lung | UO-31 renal | SF-268 CNS | M14 melanoma | HCT-15 colon | SK-MEL-5 melanoma | HOP-92 NSCLC | OVCAR-3 ovarian | TK-10 renal

COc1ccc(/C(=N\N=C(N)N)C(c2ccc(OC)cc2)C2OC(=O)c3ccccc32)cc1 (stereo not drawn)
> 100 µM: SK-OV-3 ovarian | OVCAR-8 ovarian | A549 NSCLC | MOLT-4 leukemia | UACC-257 melanoma | CCRF-CEM leukemia | NCI-H522 lung | KM20L2 colon | K-562 leukemia | IGROV1 ovarian | NCI-H23 lung | HT29 colon | SR leukemia | LXFL 529 NSCLC | SN12C renal | SF-295 CNS | NCI-H460 lung | SK-MEL-28 melanoma | RXF-631 renal | M19-MEL melanoma | SF-539 CNS | DLD-1 colon | U251 CNS | UACC-62 melanoma | XF 498 CNS | HL-60(TB) leukemia | ACHN renal | SNB-75 CNS | RPMI-8226 leukemia | SNB-78 CNS | KM12 colon | HOP-62 NSCLC | OVCAR-4 ovarian | LOX IMVI melanoma | HCT-116 colon | COLO 205 colon | MALME-3M melanoma | DMS 273 small cell lung | SW-620 colon | OVCAR-5 ovarian | SNB-19 CNS | CAKI-1 renal | DMS 114 small cell lung | 786-0 renal | NCI-H226 lung | RXF 393 renal | UO-31 renal | SF-268 CNS | M14 melanoma | HCT-15 colon | SK-MEL-5 melanoma | HOP-92 NSCLC | OVCAR-3 ovarian | HCC-2998 colon

— PubChem BioAssay (NCI)
